Laboratory results from patent publication US8859584B2, “TRPV1 antagonists” (AbbVie Inc., priority 2011, dated 2014).

Columns and labels:
[1] = target: T1, human TRPV1 (Homo sapiens, UniProt Q8NER1); test: Acid Activation Assay (pH 5.0, FLIPR intracellular Ca2+, recombinant HEK293 cells); assay type: cell-based; conditions: percentage of maximal pH 5.0-induced response remaining; HEK293 hTRPV1; max concentration 37.5 μM
T1 construct: expressed in transfected cells
Procedure, shortened: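 HEK293 cells stably expressing recombinant hTRPV1 were loaded with calcium dye for 90-120 min at 25° C and pre-treated with compound for 3 min before a pH 5.0 (DPBS/MES) challenge. Peak FLIPR fluorescence over baseline is given as percentage of the maximal pH 5.0-induced response.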

[2] = tested on: rats; test: Rat Acute Capsaicin-Induced Flinching Behavior; assay type: in vivo; conditions: 100 μmol/kg oral, capsaicin 2.5 μg one hour after compound, five minute observation
Description: (iv) Rat Acute Capsaicin-Induced Flinching Behavior
Rats were placed in individual observation cages. Following an acclimation period of 30 minutes, selected compounds were administered orally at a dose of 100 μmol/kg orally in a vehicle (10% ethanol/20% Tween 80/70% polyethylene glycol-400) at a volume of 2 mL/kg. One hour after administration of the compound, 2.5 μg of capsaicin in a 10 μL solution of 10% ethanol/90% hydroxypropyl-β-cyclodextrin was injected subcutaneously into the dorsal aspect of the right hind paw. The observation cage was then suspended above mirrors in order to facilitate observation. […] The number of flinching behaviors of the injured paw was recorded during the five minute observation period (Gilchrist, H. D.; Allard, B. L.; Simone, D. A.; Enhanced withdrawal responses to heat and mechanical stimuli following intraplantar injection of capsaicin in rats. Pain, 1996, 67, 179-188). The percent reduction in the number of flinching behaviors produced from oral administration of the test compounds relative to control-treated animals (% effect) is reported in Table 2.

[3] = target: T1, human TRPV1; test: Capsaicin Activation Assay (FLIPR intracellular Ca2+, recombinant HEK293 cells); assay type: cell-based; conditions: recombinant HEK293 cells expressing hTRPV1; 50 nM capsaicin; read-out: human TRPV1 capsaicin IC50
[4] = tested on: rats; test: Sodium Iodoacetate-Induced Knee Joint Osteoarthritic Pain Model (hind limb grip force); assay type: in vivo; conditions: rat, 1 hour after administration, 20 days after sodium iodoacetate, read-out: % effect (% return to normalcy of hind limb grip force); for inhibition in vivo at 100 µmol/kg: 100 μmol/kg po single dose
Description: (v) Sodium Iodoacetate-Induced Knee Joint Osteoarthritic Pain Model
Unilateral knee joint osteoarthritis was induced in the rats by a single intra-articular (i.a.) injection of sodium iodoacetate (3 mg in 0.05 mL sterile isotonic saline) into the right knee joint cavity under light isoflurane anesthesia using a 26G needle. […] Pain behavioral assessment of hind limb grip force was conducted by recording the maximum compressive force exerted on the hind limb strain gauge setup, in a commercially available grip force measurement system (Columbus Instruments, Columbus, Ohio). The grip force data was converted to a maximum hindlimb cumulative compressive force (CFmax) (gram force)/kg body weight for each animal. The analgesic effects of test compounds were determined 20 days following the i.a. injection of sodium iodoacetate. The vehicle control group for each compound being tested was assigned 0% whereas the age matched naïve group was assigned as being 100% (normal). The % effect for each dose group was then expressed as % return to normalcy compared to the naïve group. Test compounds were administered orally in 10% ethanol/20% Tween 80/70% polyethylene glycol-400 vehicle at a volume of 2 mL/kg. The assessment of the analgesic effects of test compounds was made 1 hour following oral administration. The assessment of the analgesic effects of test compounds can be made following a single dose or following repeated administration wherein the frequency of dosing is 1 to 2 times daily. The duration of such repeated daily dosing may last for any time greater than one day. A typical duration of repeated daily dosing is about 5 days to about 12 days.

[5] = tested on: rats; test: Rat Tail Immersion (noxious thermosensation, 55° C. water bath); assay type: in vivo; conditions: morphine 6 mg/kg i.p. in saline, relative to vehicle control
Description: (iii) Rat Tail Immersion Protocol:
Compounds were tested for their effects on noxious thermosensation using the tail immersion assay. Testing was performed one hour following oral administration of 100 μmol/kg of the compound in 10% ethanol/20% Tween-80/70% PEG-400 (2 mL/kg). Mophine (6 mg/kg) was administered interperitoneally (i.p.) using saline (2 mL/kg) as the vehicle. For testing, a circulating water bath was heated to 55° C. Thirty to sixty minutes post dosing, the rats were handled for a few seconds to calm them down and then cupped with their back against the testers hand at a slight angle with head facing away from tester. With rat in one hand and a 0.01 second stopwatch in the other hand, the tail was quickly immersed 6-8 cm in water bath or to a distance leaving 2-3 cm of tail out of water. The timer was started simultaneously. […] This response latency (in seconds) was recorded. Process was repeated 3 times with 3-4 minutes between readings for a final average.
For a given compound, a percent increase in the average response latency (in seconds) for tail withdrawal relative to a vehicle control was determined % increase=[(tc−tv)/tv]×100% tc=response time (in seconds) with oral dosing of compounds tv=response time (in seconds) with oral dosing of vehicle […]
Table 1 reports the % increase in tail withdrawal latency measured for the compounds tested. […]

T1 sequence (Q8NER1 whole entry): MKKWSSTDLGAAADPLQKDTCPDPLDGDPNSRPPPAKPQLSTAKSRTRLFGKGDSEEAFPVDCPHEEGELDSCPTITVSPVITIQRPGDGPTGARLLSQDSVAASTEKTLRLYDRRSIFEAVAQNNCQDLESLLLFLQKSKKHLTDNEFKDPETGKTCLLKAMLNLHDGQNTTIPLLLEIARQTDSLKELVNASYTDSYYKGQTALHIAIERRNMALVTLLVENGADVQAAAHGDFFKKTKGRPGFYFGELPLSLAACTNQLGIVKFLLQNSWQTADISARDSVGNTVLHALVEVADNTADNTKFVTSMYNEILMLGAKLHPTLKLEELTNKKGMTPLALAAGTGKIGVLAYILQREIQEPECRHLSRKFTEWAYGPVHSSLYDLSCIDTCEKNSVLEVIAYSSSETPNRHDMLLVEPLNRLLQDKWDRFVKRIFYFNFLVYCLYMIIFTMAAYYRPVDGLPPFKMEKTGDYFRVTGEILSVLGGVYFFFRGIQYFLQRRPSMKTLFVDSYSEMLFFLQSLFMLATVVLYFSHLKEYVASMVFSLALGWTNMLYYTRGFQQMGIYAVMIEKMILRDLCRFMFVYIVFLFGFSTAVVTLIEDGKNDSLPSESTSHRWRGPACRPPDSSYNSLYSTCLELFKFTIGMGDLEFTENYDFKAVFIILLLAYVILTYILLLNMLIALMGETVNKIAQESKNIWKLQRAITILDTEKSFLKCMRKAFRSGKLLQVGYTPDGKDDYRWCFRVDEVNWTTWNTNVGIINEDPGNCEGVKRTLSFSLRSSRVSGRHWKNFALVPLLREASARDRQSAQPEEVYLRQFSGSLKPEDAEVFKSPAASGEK

Compound | human TRPV1 H+ (max % remain) [1] | % effect (percent reduction in number of flinching behaviors relative to control-treated animals) [2] | IC50 [3] | inhibition in vivo at 100 µmol/kg [4] | % Increase in Tail Withdrawal Latency [5] | inhibition in vivo at 17 µmol/kg ([4]; 17 μmol/kg po single dose) | inhibition in vivo at 30 µmol/kg ([4]; 30 μmol/kg po single dose)
CC1(C)C[C@@H](NC(=O)Nc2cccc3c2C[C@H](O)C3)c2ccc(F)c(Cl)c2O1 [Example 12, 1-[(4R)-8-chloro-7-fluoro-2,2-dimethyl-3,4-dihydro-2H-chromen-4-yl]-3-[(2R)-2-hydroxy-2,3-dihydro-1H-inden-4-yl]urea] | 77% | 53% | 36 nM |  |  |  | 
O=C(Nc1cccc2c1C[C@H](O)C2)N[C@@H]1CC(CF)(CF)Oc2cc(Cl)ccc21 [Example 4, 1-[(4R)-7-chloro-2,2-bis(fluoromethyl)-3,4-dihydro-2H-chromen-4-yl]-3-[(2R)-2-hydroxy-2,3-dihydro-1H-inden-4-yl]urea] | 57% | 54% | 40 nM | 67% |  |  | 
O=C(Nc1cccc2c1C[C@H](O)C2)N[C@@H]1CC(CF)(CF)Oc2cc(C(F)(F)F)ccc21 [Example 7, 1-[(4R)-2,2-bis(fluoromethyl)-7-(trifluoromethyl)-3,4-dihydro-2H-chromen-4-yl]-3-[(2R)-2-hydroxy-2,3-dihydro-1H-inden-4-yl]urea] | 48% | 94% | 47 nM | 68% |  |  | 
CN1CC[C@]23c4c5ccc(O)c4O[C@H]2[C@@H](O)C=C[C@H]3[C@H]1C5 [Morphine] |  |  |  |  | +++ (greater than or equal to 25% increase) |  | 
CC1(C)C[C@@H](NC(=O)Nc2cccc3c2C[C@@H](O)C3)c2cccc(OC(F)(F)F)c2O1 [Example 88, 1-[(4R)-2,2-dimethyl-8-(trifluoromethoxy)-3,4-dihydro-2H-chromen-4-yl]-3-[(2S)-2-hydroxy-2,3-dihydro-1H-inden-4-yl]urea] | 23% | 69% | 16 nM |  |  |  | 
CC1(C)C[C@@H](NC(=O)Nc2cccc3c2C[C@H](O)C3)c2ccc(Cl)c(F)c2O1 [Example 10, 1-[(4R)-7-chloro-8-fluoro-2,2-dimethyl-3,4-dihydro-2H-chromen-4-yl]-3-[(2R)-2-hydroxy-2,3-dihydro-1H-inden-4-yl]urea] | 74% |  | 27 nM |  |  | 49% | 
O=C(Nc1cccc2c1C[C@H](O)C2)N[C@@H]1CCOc2cc(OC(F)(F)F)ccc21 [Example 14, 1-[(2R)-2-hydroxy-2,3-dihydro-1H-inden-4-yl]-3-[(4R)-7-(trifluoromethoxy)-3,4-dihydro-2H-chromen-4-yl]urea] | 48% |  | 44 nM |  |  |  | 54%
CC1(C)C[C@@H](NC(=O)Nc2cccc3c2C[C@@H](O)C3)c2ccc(F)c(Cl)c2O1 [Example 36, 1-[(4R)-8-chloro-7-fluoro-2,2-dimethyl-3,4-dihydro-2H-chromen-4-yl]-3-[(2S)-2-hydroxy-2,3-dihydro-1H-inden-4-yl]urea] | 32% | 71% | 26 nM | 46% |  |  | 
CC1(C)C[C@@H](NC(=O)Nc2cccc3c2C[C@H](O)C3)c2ccc(F)c(F)c2O1 [Example 9, 1-[(4R)-7,8-difluoro-2,2-dimethyl-3,4-dihydro-2H-chromen-4-yl]-3-[(2R)-2-hydroxy-2,3-dihydro-1H-inden-4-yl]urea] | 82% | 76% | 60 nM | 67% |  |  | 
